Where two headings read alike, the source gives them in different places.

Data set [1] is described as follows: Microsomal bioavailability (Table 2). It counts as in vitro ADME. The note with it: read-out: Microsomal bioavailability F (%).
Data set [2] has as its system TNFα. Description: ELISA for TNFα in PBMCs and brain homogenate after 6OHDA lesion. It counts as in vivo, rat. Particulars: 6OHDA rats. The protocol: (§1) Thus, Compound 8 was assessed to determine whether ERβ agonist treatment might alter the inflammatory profile following bilateral 6OHDA lesions of the SN. ELISAs for tumor necrosis factor α (TNFα), monocyte chemotactic protein 1 (MCP-1 aka CCL2), interleukin-6 (IL-6), and interleukin-1β were conducted in peripheral blood mononuclear cells (PBMCs) and brain tissue homogenates from sham or 6OHDA treated animals. […] Both TNFα and MCP-1 were elevated in PBMCs from 6OHDA animals (data not shown). Thus, these two markers were chosen for further examination. […] Treatment with Compound 8 prevented the rise in TNFα in both brain and PBMCs (FIG. 6). MCP-1 was elevated in PBMCs following 6OHDA when blood was taken on day 7 post-surgery, but not in brain homogenates taken on day 14 (following behavioral testing). The increase in MCP-1 in PBMCs was not prevented by Compound 8 treatment, even though the behavioral profile was normal. Thus, TNFα might be a maker of an inflammatory pathway triggered by 6OHDA infusion and prevented by treatment with an ERβ agonist in a manner that also prevents motor deficits and dopamine neuron loss in the substantia nigra.
Background: In an ELISA, binding on a coated surface is turned into a signal by an enzyme label.

Data set [3] relates to MCP-1. Description: ELISA for MCP-1 in PBMCs after 6OHDA lesion. Particulars: 6OHDA rats, blood day 7 post-surgery. The format is in vivo, rat. As to the method: as §1
The nature of data set [4]: Brain to plasma ratio in rats. It counts as in vivo.
The nature of data set [5]: Initial toxicity studies, in vitro and in vivo.
A short description of data set [6]: Bioavailability after intravenous, oral and sublingual administration in rat. Particulars: in vivo, rats. As to the method:
Similarly to the Example above, Compound 8 was also administered to rat intravenously, orally and sublingual. Also the prodrug of Compound 8, i.e. Compound 9, was administered. The bioavailability (% F) indicated for the prodrug Compound 9 is the results of measurements of the bioavailability for Compound 8, which Compound 9 is converted into upon administration. AUC 0-4 was used for calculation of the bioavailability.

Data set [7] is described as follows: Bioavailability after intravenous and sublingual administration in male beagle dogs. The format is in vivo. Particulars: for half-life: 10 mg/kg. As to the method: In this example, the sublingual bioavailability of Compound 8 was evaluated after intravenous and sublingual doses in male beagle dogs. The test compound was dosed at 1 and 10 mg/kg through intravenous and sublingual routes, respectively. Plasma samples were collected 10 min, 20 min, 30 min, 45 min, 1 hour, 2 hours, 4 hours, 8 hours, 12 hours and 24 hours post dose. Plasma levels were determined by LC-MS/MS analysis. A pre-study standard curve was analyzed to determine the specificity, range and lower limit of quantification of the LC-MS/MS method. The study samples were treated identically to the standards. Pharmacokinetic parameters were estimated by a non-compartmental model using WinNonlin v4.1 software.

Data set [8] has as its system Taxol-induced allodynia. Description: Taxol-induced neuropathy model. It counts as in vivo, male SD rats. Particulars: 2 hours post-dose. As to the method:
Neuropathy was induced in male SD rats by 4×1 mg/kg consecutive daily doses of taxol as described (Naguib M, Diaz P, Xu J J, Astruc-Diaz F, Craig S, Vivas-Mejia P, Brown D L. MDA7: a novel selective agonist for CB2 receptors that prevents allodynia in rat neuropathic pain models. Br J. Pharmacol. 2008 December; 155(7):1104-16). The presence of tactile allodynia (von Frey filament 50% response threshold of <5 g) was confirmed prior to inclusion in the study. Drugs were administered sub-cutaneously (s.c.) except gabapentin was given intra-peritoneally (i.p.). Doses are given in mg/kg. * p<0.05.
Allodynia was assessed by applying a light tactile stimulus (Von Frey hairs) to the plantar surface of the surgical paw until the 50% threshold was established. A positive response was recorded if the paw was sharply withdrawn. Eight VonFrey hairs were used (3.61, 3.84, 4.08, 4.31, 4.56, 4.74, 4.93 and 5.18). MPE (%) was calculated as [(Rdrug−Rveh)/(Rsham−Rveh)]*100% where Rveh was 4 and Rsham was 13. Repeat dosing (FIG. 10C) was performed by administering the indicated doses of Compound 8 once daily via the s.c. route. Efficacy was measured 2 hours post-dose.

Where [9] appears, read: dog intravenous 1 mg/kg vs parameters observed in rats.

The bioavailability is dose-corrected exposure relative to a reference, in per cent. As a reminder, the half-life is the time needed for the level to fall by half in the phase considered. What is called clearance is a measure of how efficiently the substance is removed, as volume per time. Low readings indicate a low capacity for elimination, high ones a high capacity for elimination. Consider `Oc1ccc(C2(c3ccccc3F)CCC(F)(F)CC2)cc1` [Compound 8, 4-(4,4-Difluoro-1-(2-fluorophenyl)cyclohexyl)phenol], for which the Microsomal bioavailability (predicted from microsomes) in data set [1] was 4.2%. The “6OHDA-induced increase of TNFα in PBMCs and brain” value in data set [2] is on record as “blocked this increase”. For the same compound, the “6OHDA-induced increase of MCP-1 in PBMCs” value in data set [3] is “not prevented”. Besides, the “brain to plasma ratio” value in data set [4] was “good brain to plasma ratio”. Also, the “tolerability in initial toxicity studies” value in data set [5] is recorded as “well tolerated”. In addition, the bioavailability in data set [6] (po, Compound 8 dosed orally, read-out: oral bioavailability) is around 8%; in data set [6] (Compound 8 dosed sublingually, read-out: sublingual bioavailability) it was 79%; in data set [7] (male, beagle, plasma, other: sublingual, dog, sublingual 10 mg/kg vs intravenous 1 mg/kg, read-out: overall percent bioavailability following sublingual dose) it was 44%. The “Cmax increase compared to rats” value in data set [7] (setting [9]) is given as 2 fold. The “clearance decrease compared to rats” value in data set [7] (setting [9]) was 2 fold. Further, in data set [7] (setting [9]), the “volume of distribution decrease compared to rats” value came to 2 fold. For the same compound, the half-life in data set [7] (male, beagle, dog, plasma, dog, sublingual 10 mg/kg, read-out: average half-life (converted)) is 2.08 ± 0.5 h; in data set [7] (male, beagle, dog, plasma, dog, sublingual, as summarised, read-out: half life (converted)), 2 h. The same compound had a clearance in data set [7] (male, beagle, plasma, dog, intravenous 1 mg/kg) of 47 mL/min/kg. Further, the Cmax in data set [7] (male, beagle, plasma, dog, intravenous 1 mg/kg, read-out: average maximum concentration (Cmax)) is 738 ± 199 ng/mL; in data set [7] (male, beagle, plasma, dog, sublingual 10 mg/kg, read-out: Cmax), 1060 ± 110 ng/mL. For the same compound, the Vd in data set [7] (male, beagle, plasma, dog, intravenous 1 mg/kg, read-out: volume of distribution) was determined as 3.5 ± 0.9 L/kg. Also, in data set [8] (once daily s.c.), the “efficacy on repeat dosing” value is “maintained over 5 days”. In addition, the “effect on Taxol-induced allodynia” value in data set [8] (s.c. (gabapentin i.p.), Compound 8 at 10 and 30 mg/kg) is “essentially complete reversal”.

Source of the values: patent US9061981B2, “Diphenyl substituted cyclohexane derivatives, useful as modulators of the estrogen receptors beta” (Acadia Pharmaceuticals Inc., priority 2011, dated 2015).
